Publication PMC2758355 (Chemical research in toxicology, 2009)
Entries after “also recorded” stand apart in the source; their conditions may differ.

Legend:
[1] = target: T1, ERα (Homo sapiens, UniProt P03372); experiment: Competition binding with [3H]estradiol in MCF-7 cells; settings: for activity in in vitro assays (result in words): binding and transactivation assays, experimental testing; for Ki: competition with radioactive-labeled estradiol
T1 sequence (P03372 1-595): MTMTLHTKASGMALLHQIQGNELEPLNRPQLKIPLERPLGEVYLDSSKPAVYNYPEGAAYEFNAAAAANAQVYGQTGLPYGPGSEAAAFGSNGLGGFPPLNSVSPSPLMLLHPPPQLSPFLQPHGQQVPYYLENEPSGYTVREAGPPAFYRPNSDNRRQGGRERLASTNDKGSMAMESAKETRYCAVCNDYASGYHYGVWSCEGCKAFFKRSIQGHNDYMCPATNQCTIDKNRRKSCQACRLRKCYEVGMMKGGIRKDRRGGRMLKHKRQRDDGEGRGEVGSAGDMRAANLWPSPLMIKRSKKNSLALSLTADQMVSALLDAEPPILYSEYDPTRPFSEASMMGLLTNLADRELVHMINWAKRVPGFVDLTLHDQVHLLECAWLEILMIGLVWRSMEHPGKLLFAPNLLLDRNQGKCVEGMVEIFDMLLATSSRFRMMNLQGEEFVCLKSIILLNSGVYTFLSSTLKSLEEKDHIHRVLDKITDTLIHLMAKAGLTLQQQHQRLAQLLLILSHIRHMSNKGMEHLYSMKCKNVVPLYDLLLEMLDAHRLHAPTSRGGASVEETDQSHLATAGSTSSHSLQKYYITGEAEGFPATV

[2] = target: T1, ERα; settings: cited from earlier work
[3] = established by JECFA; ref www.fao.org/ag/agn/jecfa-additives; cited from earlier work
[4] = system: ER; settings: cited from earlier work

activity in in vitro assays (result in words) [1]	SMILES	binding to ER (result in words) [4]	further results
	COc1cc(/C=C/C(=O)CC(=O)/C=C/c2ccc(O)c(OC)c2)ccc1O [curcumin]		binding to the receptor in the competition assay (result in words) ([1]; competitor 1 nM to 0.25 μM): lack binding activity
active	CCCOC(=O)c1cc(O)c(O)c(O)c1 [propyl gallate]		Ki ([1]; binding constant, Figure 4a): 54 nM; Ki ([1]; pKi): 40.7 nM; transactivation activity (result in words) [2]: high micromolar range; acceptable daily intake [3]: 0−1.4 mg/kg
	CC(Cc1ccc(O)c(O)c1)C(C)Cc1ccc(O)c(O)c1 (centres unmarked) [nordihydroguaiaretic acid]	known to bind to ER; also recorded: nanomolar binding affinity/potency	
	CCCOC(=O)c1ccc(O)cc1 [propyl p-hydroxybenzoate]	known to bind to ER	
only the propyl gallate resulted active	CCCCCCCCOC(=O)c1cc(O)c(O)c(O)c1 [octyl gallate]		
	CCCCOC(=O)c1ccc(O)cc1 [butyl p-hydroxybenzoate]	known to bind to ER; also recorded: weak binders	

SMILES	activity in in vitro assays (result in words) [1]	binding to ER (result in words) [4]	further results
COc1cc(CNC(=O)CCCC/C=C/C(C)C)ccc1O [capsaicin]	inactive		
